Reference: US4340609A, “Amidinourea derivative veterinary compositions for suppression of parasitemia” (William H. Rorer, Inc., priority 1980, dated 1982)
Where a name gives a salt, the structure may show the parent alone. Read-outs that look alike come from different tables or passages of the source.

Assays:
[1] = test system: Babesis caballi, or B. equi; conditions: horses; reported; cited from earlier work
P. berghei = conditions: cited from earlier work
plasmodium berghei = assay: suppression of parasitemia in mice infected with plasmodium berghei; type: in vivo; conditions: for ED50: Plasmodium berghei, sc; for ED50 / Mean % Parasitemia / Mean % Suppression / % died: mice
Procedure, shortened: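 Mice, 10 per dose group, infected intraperitoneally with 5,000,000 P. berghei-parasitized blood cells. Seven doses from 0.15 to 10 mg/kg (as base) in 0.5% methocel were given subcutaneously on days 1, 2 and 3. Parasitemia was followed by blood smears on days 4, 5, 6 and 10.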

LD50 in mice = conditions: mouse, in vivo
[2] = s.c., 1.0 mg/kg on days 1-3, 4th day
[3] = s.c., 1.0 mg/kg on days 1-3, 5th day
[4] = s.c., 1.0 mg/kg on days 1-3, 6th day
[5] = s.c., 1.0 mg/kg on days 1-3, 10th day
[6] = s.c., 2.0 mg/kg on days 1-3, 4th day
[7] = s.c., 2.0 mg/kg on days 1-3, 5th day
[8] = s.c., 2.0 mg/kg on days 1-3, 6th day
[9] = s.c., 2.0 mg/kg on days 1-3, 10th day
[10] = s.c., 10.0 mg/kg on days 1-3, 4th day
[11] = s.c., 10.0 mg/kg on days 1-3, 5th day
[12] = s.c., 10.0 mg/kg on days 1-3, 6th day
[13] = s.c., 10.0 mg/kg on days 1-3, 10th day
[14] = s.c., .15 mg/kg on days 1-3, 4th day
[15] = s.c., .15 mg/kg on days 1-3, 5th day
[16] = s.c., .15 mg/kg on days 1-3, 6th day
[17] = s.c., .15 mg/kg on days 1-3, 10th day
[18] = s.c., .20 mg/kg on days 1-3, 4th day
[19] = s.c., .20 mg/kg on days 1-3, 5th day
[20] = s.c., .20 mg/kg on days 1-3, 6th day
[21] = s.c., .20 mg/kg on days 1-3, 10th day
[22] = s.c., .30 mg/kg on days 1-3, 4th day
[23] = s.c., .30 mg/kg on days 1-3, 5th day
[24] = s.c., .30 mg/kg on days 1-3, 6th day
[25] = s.c., .30 mg/kg on days 1-3, 10th day
[26] = s.c., .50 mg/kg on days 1-3, 4th day
[27] = s.c., .50 mg/kg on days 1-3, 5th day
[28] = s.c., .50 mg/kg on days 1-3, 6th day
[29] = s.c., .50 mg/kg on days 1-3, 10th day

N=C(N)c1ccc(N=NNc2ccc(C(=N)N)cc2)cc1 [birenil]
effect on equine piroplasmosis parasites [1]: only to reduce the number of parasites

acriflavin
effect on equine piroplasmosis parasites [1]: only to reduce the number of parasites

CC1(C)N=C(N)N=C(N)N1c1ccc(Cl)cc1 [chloroguanide triazine pamoate]
excretion from the host body (P. berghei; P. berghei infected mice, single muscular injection): not excreted rapidly from the host body | effect in P. berghei infected mice (P. berghei; single muscular injection): good and lasting effects

C[n+]1cccc2cc(NC(=O)Nc3ccc4c(ccc[n+]4C)c3)ccc21 [acaprin]
effect on equine piroplasmosis parasites [1]: only to reduce the number of parasites

CCc1nc(N)nc(N)c1-c1ccc(Cl)cc1 [pyrimethamine]
resistance of P. berghei (P. berghei; P. berghei): resistant

CNC(=N)NC(=O)Nc1c(C)cccc1Br [Compound B, 1-(2-bromo-6-methylphenyl)-3-methylamidino)urea hydrochloride]
ED50 (plasmodium berghei; 96 h, s.c., levels of parasitemia, 4th day, read-out: SED50 (Suppressant Effective Dose50)): 1.87 mg/kg | ED50 (plasmodium berghei; 120 h, s.c., levels of parasitemia, 5th day, read-out: SED50 (Suppressant Effective Dose50)): 1.87 mg/kg | ED50 (plasmodium berghei; 144 h, s.c., levels of parasitemia, 6th day, read-out: SED50 (Suppressant Effective Dose50)): 1.66 mg/kg | ED50 (plasmodium berghei; 240 h, s.c., levels of parasitemia, 10th day, read-out: SED50 (Suppressant Effective Dose50)): 1.87 mg/kg | ED50 (plasmodium berghei; day 4 to day 10, read-out: HIGHEST SED50): 1.87 mg/kg | ED50 (plasmodium berghei; day 4 to day 10, read-out: LOWEST SED50): 1.66 mg/kg | FACTOR (HIGHEST SED50 ÷ LOWEST SED50) (plasmodium berghei; factor of change, day 4 to day 10, duration of action): 1.12 | Mean % Parasitemia (plasmodium berghei; [2]): 3.75% | Mean % Suppression (plasmodium berghei; [2]): 28.6% | Mean % Parasitemia (plasmodium berghei; [3]): 4.30% | Mean % Suppression (plasmodium berghei; [3]): 41.1% | Mean % Parasitemia (plasmodium berghei; [4]): 5.10% | Mean % Suppression (plasmodium berghei; [4]): 45.2% | Mean % Parasitemia (plasmodium berghei; [5]): 23.2% | Mean % Suppression (plasmodium berghei; [5]): 34.6% | % died (plasmodium berghei; s.c., 1.0 mg/kg on days 1-3, 12th day): 0% | % died (plasmodium berghei; s.c., 1.0 mg/kg on days 1-3, 13th day): 20% | % died (plasmodium berghei; s.c., 1.0 mg/kg on days 1-3, 14th day): 20% | Mean % Parasitemia (plasmodium berghei; [6]): 2.50% | Mean % Suppression (plasmodium berghei; [6]): 52.3% | Mean % Parasitemia (plasmodium berghei; [7]): 3.40% | Mean % Suppression (plasmodium berghei; [7]): 53.2% | Mean % Parasitemia (plasmodium berghei; [8]): 4.50% | Mean % Suppression (plasmodium berghei; [8]): 51.6% | Mean % Parasitemia (plasmodium berghei; [9]): 19.8% | Mean % Suppression (plasmodium berghei; [9]): 44.2% | % died (plasmodium berghei; s.c., 2.0 mg/kg on days 1-3, 12th day): 0% | % died (plasmodium berghei; s.c., 2.0 mg/kg on days 1-3, 13th day): 0% | % died (plasmodium berghei; s.c., 2.0 mg/kg on days 1-3, 14th day): 20% | Mean % Parasitemia (plasmodium berghei; [10]): 0.25% | Mean % Suppression (plasmodium berghei; [10]): 96.2% | Mean % Parasitemia (plasmodium berghei; [11]): 0.50% | Mean % Suppression (plasmodium berghei; [11]): 94.0% | Mean % Parasitemia (plasmodium berghei; [12]): 0.05% | Mean % Suppression (plasmodium berghei; [12]): 99.6% | Mean % Parasitemia (plasmodium berghei; [13]): 0% | Mean % Suppression (plasmodium berghei; [13]): 100.0% | % died (plasmodium berghei; s.c., 10.0 mg/kg on days 1-3, 12th day): 0% | % died (plasmodium berghei; s.c., 10.0 mg/kg on days 1-3, 13th day): 0% | % died (plasmodium berghei; s.c., 10.0 mg/kg on days 1-3, 14th day): 0% | Mean % Parasitemia (plasmodium berghei; [14]): 5.00% | Mean % Suppression (plasmodium berghei; [14]): 4.8% | Mean % Parasitemia (plasmodium berghei; [15]): 7.00% | Mean % Suppression (plasmodium berghei; [15]): 4.1% | Mean % Parasitemia (plasmodium berghei; [16]): 7.80% | Mean % Suppression (plasmodium berghei; [16]): 16.1% | Mean % Parasitemia (plasmodium berghei; [17]): 34.1% | Mean % Suppression (plasmodium berghei; [17]): 3.9% | % died (plasmodium berghei; s.c., .15 mg/kg on days 1-3, 12th day): 20% | % died (plasmodium berghei; s.c., .15 mg/kg on days 1-3, 13th day): 20% | % died (plasmodium berghei; s.c., .15 mg/kg on days 1-3, 14th day): 20% | Mean % Parasitemia (plasmodium berghei; [18]): 5.00% | Mean % Suppression (plasmodium berghei; [18]): 4.8% | Mean % Parasitemia (plasmodium berghei; [19]): 6.90% | Mean % Suppression (plasmodium berghei; [19]): 5.5% | Mean % Parasitemia (plasmodium berghei; [20]): 7.40% | Mean % Suppression (plasmodium berghei; [20]): 20.4% | Mean % Parasitemia (plasmodium berghei; [21]): 30.2% | Mean % Suppression (plasmodium berghei; [21]): 14.9% | % died (plasmodium berghei; s.c., .20 mg/kg on days 1-3, 12th day): 0% | % died (plasmodium berghei; s.c., .20 mg/kg on days 1-3, 13th day): 20% | % died (plasmodium berghei; s.c., .20 mg/kg on days 1-3, 14th day): 40% | Mean % Parasitemia (plasmodium berghei; [22]): 4.00% | Mean % Suppression (plasmodium berghei; [22]): 23.8% | Mean % Parasitemia (plasmodium berghei; [23]): 6.60% | Mean % Suppression (plasmodium berghei; [23]): 9.6% | Mean % Parasitemia (plasmodium berghei; [24]): 6.90% | Mean % Suppression (plasmodium berghei; [24]): 25.8% | Mean % Parasitemia (plasmodium berghei; [25]): 29.1% | Mean % Suppression (plasmodium berghei; [25]): 18.0% | % died (plasmodium berghei; s.c., .30 mg/kg on days 1-3, 12th day): 0% | % died (plasmodium berghei; s.c., .30 mg/kg on days 1-3, 13th day): 0% | % died (plasmodium berghei; s.c., .30 mg/kg on days 1-3, 14th day): 40% | Mean % Parasitemia (plasmodium berghei; [26]): 4.00% | Mean % Suppression (plasmodium berghei; [26]): 23.8% | Mean % Parasitemia (plasmodium berghei; [27]): 5.10% | Mean % Suppression (plasmodium berghei; [27]): 30.1% | Mean % Parasitemia (plasmodium berghei; [28]): 5.80% | Mean % Suppression (plasmodium berghei; [28]): 37.6% | Mean % Parasitemia (plasmodium berghei; [29]): 26.7% | Mean % Suppression (plasmodium berghei; [29]): 24.8% | % died (plasmodium berghei; s.c., .50 mg/kg on days 1-3, 12th day): 20% | % died (plasmodium berghei; s.c., .50 mg/kg on days 1-3, 13th day): 40% | % died (plasmodium berghei; s.c., .50 mg/kg on days 1-3, 14th day): 60% | LD50 (LD50 in mice): 82 to 135 mg/kg
